Reference: paper PMC9386326, “Dysregulated glucuronic acid metabolism exacerbates hepatocellular carcinoma progression and metastasis through the TGFβ signalling pathway” (Clinical and Translational Medicine, 2022)

Biological target: T1, PTBP3 (Homo sapiens, UniProt O95758)
T1 construct: endogenous full-length protein in human hepatoma (Huh7) cells / cell lysates
Assay: CETSA (cell lysate, immunoblot) and DARTS (pronase)
Assay type: biochemical
Conditions: endogenous PTBP3 in Huh7 cells / lysates; stabilisation, authors call it potential direct binding

T1 sequence (O95758 whole entry): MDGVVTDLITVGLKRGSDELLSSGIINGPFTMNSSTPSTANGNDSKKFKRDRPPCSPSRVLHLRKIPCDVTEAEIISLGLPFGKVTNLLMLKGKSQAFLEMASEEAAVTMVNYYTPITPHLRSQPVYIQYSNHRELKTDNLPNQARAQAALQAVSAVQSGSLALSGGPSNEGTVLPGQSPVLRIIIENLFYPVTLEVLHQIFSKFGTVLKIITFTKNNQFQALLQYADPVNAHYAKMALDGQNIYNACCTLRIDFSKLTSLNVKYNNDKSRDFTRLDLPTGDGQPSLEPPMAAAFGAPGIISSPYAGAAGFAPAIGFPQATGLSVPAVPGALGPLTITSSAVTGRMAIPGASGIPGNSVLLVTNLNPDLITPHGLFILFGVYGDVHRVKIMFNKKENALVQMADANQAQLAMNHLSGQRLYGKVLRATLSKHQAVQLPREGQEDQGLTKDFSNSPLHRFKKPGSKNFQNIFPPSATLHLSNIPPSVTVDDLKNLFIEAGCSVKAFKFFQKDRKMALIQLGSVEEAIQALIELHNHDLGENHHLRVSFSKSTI

Question: `O=C(O)[C@H]1O[C@H](OP(=O)(O)OP(=O)(O)OC[C@H]2O[C@@H](n3ccc(=O)[nH]c3=O)[C@H](O)[C@@H]2O)[C@H](O)[C@@H](O)[C@@H]1O` [UDP-GlcUA] was tested. Which “CETSA (cell lysate, immunoblot) and DARTS (pronase)” value did it give?
Answer: PTBP3 protein stability is enhanced upon UDP‐GlcUA treatment, suggesting a potential direct binding
